Earlier results in paper PMC8398451, “Molecular Engineering of Curcumin, an Active Constituent of Curcuma longa L. (Turmeric) of the Family Zingiberaceae with Improved Antiproliferative Activity” (Plants, 2021).

Experiments:
Set-up in all cases: method as in earlier work
Conditions in all cases: cited from earlier work; for Mean % GI: 10 µM, retrieved from NCI data-ware
[1] = test system: CNS Cancer cell line panel
[2] = test system: Colon Cancer cell line panel
Leukemia cell line panel = test system: Leukemia cell line panel
[3] = test system: Breast Cancer cell line panel
Melanoma cell line panel = test system: Melanoma cell line panel
[4] = test system: Renal Cancer cell line panel
[5] = test system: Non-Small Cell Lung Cancer cell line panel
[6] = test system: Prostate Cancer cell line panel
[7] = test system: Ovarian Cancer cell line panel
[8] = five-dose assay, curcumin NCI data

Row | Structure (SMILES) | Mean % GI [1] | GI50 [1, 8] | Mean % GI [2] | GI50 [2, 8] | Mean % GI (Leukemia cell line panel) | GI50 (Leukemia cell line panel; [8]) | Mean % GI [3] | GI50 [3, 8] | Mean % GI (Melanoma cell line panel) | GI50 (Melanoma cell line panel; [8]) | Mean % GI [4] | GI50 [4, 8] | Mean % GI [5] | GI50 [5, 8] | Mean % GI [6] | GI50 [6, 8] | Mean % GI [7] | GI50 [7, 8]
1 | COc1cc(/C=C/C(=O)CC(=O)/C=C/c2ccc(O)c(OC)c2)ccc1O [Cur, Curcumin] | 60.75% | 5.8 µM | 95.76% | 4.7 µM | 97.76% | 3.7 µM | 56.1% | 8.1 µM | 54.63% | 5.9 µM | 45.35% | 8.9 µM | 49.27% | 9.2 µM | 61.3% | 11.2 µM | 44.66% | 9.1 µM
2 | COc1cc2ncnc(Nc3ccc(F)c(Cl)c3)c2cc1OCCCN1CCOCC1 [Gefitinib] | 46.13% | – | 52.19% | – | 79.68% | – | 52.88% | – | 44.99% | – | 77.89% | – | 63.97% | – | 59.6% | – | 60.93% | –
